# From patent US10144755B2, “Substituted nucleosides, nucleotides and analogs thereof” (ALIOS BIOPHARMA, INC., priority 2012, dated 2018)
# pEC50, pIC50: −log10 of the molar value.
# Tested on: self-replicating, subgenomic HCV replicon in Huh-7 cells
# Assay: HCV replicon assay
# Type: cell-based
# Conditions: Hepatitis C virus, Huh-7, 72 h
row,SMILES,pEC50
1,CCOc1nc(N)nc2c1ncn2[C@@H]1O[C@](F)(CO[P@](=O)(N[C@@H](C)C(=O)OC2CCCCC2)Oc2ccccc2)[C@@H](O)[C@@]1(C)F [Compound 32],> 6.00
2,C[C@H](NP(=O)(OC[C@@]1(F)O[C@@H](n2ccc(=O)[nH]c2=O)[C@](C)(F)[C@@H]1O)Oc1ccccc1)C(=O)OC1CCCCC1 (some centres unmarked) [Compound 30],> 6.00
3,CCOc1nc(N)nc2c1ncn2[C@@H]1O[C@](F)(COP(=O)(N[C@@H](C)C(=O)OC(C)C)Oc2ccccc2)[C@@H](O)[C@@]1(C)F (some centres unmarked) [Compound 85],> 6.00
4,CC(C)OC(=O)[C@H](C)NP(=O)(OC[C@@]1(F)O[C@@H](n2ccc(=O)[nH]c2=O)[C@](C)(F)[C@@H]1O)Oc1ccccc1 (some centres unmarked) [Compound 31],> 6.00
5,CCOc1nc(N)nc2c1ncn2[C@@H]1O[C@](F)(COP(=O)(N[C@@H](C)C(=O)OCC(C)C)Oc2ccccc2)[C@@H](O)[C@@]1(C)F (some centres unmarked) [Compound 86],> 6.00
6,CC(C)(C)C(=O)SCCOCCOP(=O)(OCCOCCSC(=O)C(C)(C)C)OC[C@@]1(F)O[C@@H](n2ccc(=O)[nH]c2=O)[C@](C)(O)[C@@H]1O [Compound 59],4.00 to 5.00
7,CC(C)(C)C(=O)SCCOP(=O)(OCCSC(=O)C(C)(C)C)OC[C@@]1(F)O[C@@H](n2ccc(=O)[nH]c2=O)[C@](C)(O)[C@@H]1O [Compound 58],> 6.00
8,C#C[C@]1(O)[C@H](n2cnc3c(OCC)nc(N)nc32)O[C@](F)(CO[P@](=O)(N[C@@H](C)C(=O)OC2CCCCC2)Oc2ccccc2)[C@H]1O [Compound 34],> 6.00
9,CCOc1nc(N)nc2c1ncn2[C@@H]1O[C@](F)(COP(=O)(N[C@@H](C)C(=O)OCC(C)C)Oc2cccc3ccccc23)[C@@H](O)[C@@]1(C)F (some centres unmarked) [Compound 84],> 6.00
10,CCOc1nc(N)nc2c1ncn2[C@@H]1O[C@](F)(CO[P@@](=O)(N[C@@H](C)C(=O)OC2CCCCC2)Oc2ccccc2)[C@@H](O)[C@@]1(C)F [Compound 33],> 6.00
11,C[C@H](NP(=O)(OC[C@@]1(F)O[C@@H](n2ccc(=O)[nH]c2=O)[C@](C)(O)C1O)Oc1ccccc1)C(=O)OCC(C)(C)C (some centres unmarked) [Compound 5],> 6.00
12,C#C[C@]1(O)[C@H](n2cnc3c(OCC)nc(N)nc32)O[C@](F)(CO[P@@](=O)(N[C@@H](C)C(=O)OC2CCCCC2)Oc2ccccc2)[C@H]1O [Compound 35],> 6.00
13,"C#C[C@]1(F)[C@H](n2cnc3c(OCC)nc(N)nc32)O[C@](F)(COP(=O)(N[C@@H](C)C(=O)OC2CCCCC2)Oc2ccccc2)[C@H]1O (single isomer, unassigned) [Compound 41]",5.00 to 6.00
14,CCOc1nc(N)nc2c1ncn2[C@@H]1O[C@](F)(COP(=O)(N[C@@H](C)C(=O)OC(C)C)Oc2cccc3ccccc23)[C@@H](O)[C@@]1(C)F (some centres unmarked) [Compound 83],> 6.00
15,C=C[C@]1(O)[C@H](n2ccc(=O)[nH]c2=O)O[C@](F)(CO[P@@](=O)(N[C@@H](C)C(=O)OC(C)C)Oc2ccccc2)[C@H]1O [Compound 77],5.00 to 6.00
16,C#C[C@]1(F)[C@H](n2cnc3c(OCC)nc(N)nc32)O[C@](F)(COP(=O)(N[C@@H](C)C(=O)OC2CCCCC2)Oc2ccccc2)[C@H]1O (some centres unmarked) [Compound 40],5.00 to 6.00

# Same assay, conditions: Hepatitis C virus; Huh-7 HCV replicon cells, luciferase reporter, 72 h; read-out: EC50
row,SMILES,pEC50
1,CCOc1nc(N)nc2c1ncn2[C@@H]1O[C@]2(F)CO[P@@](=O)(OC(C)C)O[C@H]2[C@@]1(C)F [Compound 43],> 6.00
2,CC(C)(C)C(=O)OCOP(=O)(OCOC(=O)C(C)(C)C)OC[C@@]1(F)O[C@@H](n2ccc(=O)[nH]c2=O)[C@](C)(O)[C@@H]1O [Compound 55],> 6.00
3,"CCOc1nc(N)nc2c1ncn2[C@@H]1O[C@]2(F)CO[P@](=O)(OC(C)C)O[C@H]2[C@@]1(C)O (single isomer, unassigned) [Compound 36]",> 6.00
4,CCOc1nc(N)nc2c1ncn2[C@@H]1O[C@](F)(COP(=O)(OCOC(=O)OC(C)C)OCOC(=O)OC(C)C)[C@@H](O)[C@@]1(C)F [Compound 53],> 6.00
5,CCOc1nc(N)nc2c1ncn2[C@@H]1O[C@]2(F)CO[P@@](=O)(OC(C)C)O[C@H]2[C@@]1(C)O [Compound 37],> 6.00
6,C[C@]1(F)[C@H](n2cnc3c(=O)[nH]c(N)nc32)O[C@](F)(CO)[C@H]1O [Compound 29],4.00 to 5.00
7,CCOc1nc(N)nc2c1ncn2[C@@H]1O[C@](F)(COP(=O)(OCOC(=O)OC(C)C)OCOC(=O)OC(C)C)[C@@H](O)[C@@]1(C)O [Compound 52],> 6.00
8,C#C[C@]1(O)[C@H](n2ccc(=O)[nH]c2=O)O[C@](F)(COP(=O)(OCOC(=O)OC(C)C)OCOC(=O)OC(C)C)[C@H]1O [Compound 51],5.00 to 6.00
9,CC(C)OC(=O)OCOP(=O)(OCOC(=O)OC(C)C)OC[C@@]1(F)O[C@@H](n2ccc(=O)[nH]c2=O)[C@](C)(O)[C@@H]1O [Compound 14],> 6.00
10,CC(C)OC(=O)OCOP(=O)(OCOC(=O)OC(C)C)OC[C@@]1(F)O[C@@H](n2cnc3c(=O)[nH]c(N)nc32)[C@](C)(O)[C@@H]1O [Compound 49],> 6.00
11,C[C@]1(F)[C@H](n2ccc(N)nc2=O)O[C@](F)(COP(=O)(O)OP(=O)(O)OP(=O)(O)O)[C@H]1O [Compound 28],> 6.00
12,C[C@]1(F)[C@H](n2ccc(N)nc2=O)O[C@](F)(CO)[C@H]1O [Compound 27],4.00 to 5.00

# Same assay, conditions: read-out: EC50
row,SMILES,pEC50
1,CCOc1nc(N)nc2c1ncn2[C@@H]1O[C@]2(F)CO[P@](=O)(OC(C)C)O[C@H]2[C@@]1(C)F [Compound 42],> 6.00

# Biological target: NS5B570-Con1 (Delta-21) (Hepatitis C virus genotype 1b, UniProt Q9WMX2)
# Assay: biochemical
# Type: biochemical, HCV (Con-1 strain)
# Conditions: 50 nM NS5B570-Con1, cIRES RNA template, 2 h at 37° C., mean of several independent experiments
row,SMILES,pIC50
1,C#C[C@]1(F)[C@H](n2cnc3c(=O)[nH]c(N)nc32)O[C@](F)(COP(=O)(O)OP(=O)(O)OP(=O)(O)O)[C@H]1O [Compound 44],> 6.00

# Same assay, conditions: 50 nM NS5B570-Con1, cIRES RNA template, 2 h at 37° C., mean of several independent experiments; read-out: IC50
row,SMILES,pIC50
1,C[C@]1(Cl)[C@H](n2ccc(=O)[nH]c2=O)O[C@](F)(COP(=O)(O)OP(=O)(O)OP(=O)(O)O)[C@H]1O [Compound 46],> 6.00

# Same assay, conditions: IC50, 50 nM NS5B570-Con1, cIRES RNA template, 2 h at 37° C., mean of several independent experiments
row,SMILES,pIC50
1,"C[C@]1(O)[C@H](n2ccc(=O)[nH]c2=O)O[C@](F)(COP(O)(=S)OP(=O)(O)OP(=O)(O)O)[C@H]1O (single isomer, unassigned) [Compound 7b]",5.00 to 6.00
2,"C[C@]1(O)[C@H](n2ccc(=O)[nH]c2=O)O[C@](F)(COP(O)(=S)OP(=O)(O)OP(=O)(O)O)[C@H]1O (single isomer, unassigned) [Compound 7a]",> 6.00
3,O=c1ccn([C@@H]2O[C@](F)(COP(=O)(O)OP(=O)(O)OP(=O)(O)O)[C@@H](O)[C@]2(O)CF)c(=O)[nH]1 [Compound 76],> 6.00
4,C#C[C@]1(F)[C@H](n2cnc3c(=O)[nH]c(N)nc32)O[C@](F)(COP(=O)(O)OP(=O)(O)OP(=O)(O)O)[C@H]1O [Compound 69],> 6.00
5,C#C[C@]1(O)[C@H](n2cnc3c(=O)[nH]c(N)nc32)O[C@](F)(COP(=O)(O)OP(=O)(O)OP(=O)(O)O)[C@H]1O [Compound 9],> 6.00

# Tested on: mitochondrial protein synthesis (COX I / SDH A) in HepG2 cells
# Assay: not given
# Conditions: not given
row,SMILES,inhibition of mitochondrial protein synthesis (COX I/SDH A ratio)
1,COc1nc(N)nc2c1ncn2[C@@H]1O[C@H](COP(=O)(N[C@@H](C)C(=O)OCC(C)(C)C)Oc2cccc3ccccc23)[C@@H](O)[C@@]1(C)O (some centres unmarked) [INX-08189/BMS-986094],strongly inhibit mitochondrial protein synthesis
2,Nc1ccn([C@H]2CC[C@@H](CO)O2)c(=O)n1 [ddC],strongly inhibit mitochondrial protein synthesis
3,Cc1cn([C@H]2C=C[C@@H](CO)O2)c(=O)[nH]c1=O [d4T],not to inhibit mitochondrial protein synthesis at concentrations up to 100 μM

# Biological target: human mitochondrial RNA polymerase (Homo sapiens, UniProt O00411)
# Sequence (O00411 42-1230): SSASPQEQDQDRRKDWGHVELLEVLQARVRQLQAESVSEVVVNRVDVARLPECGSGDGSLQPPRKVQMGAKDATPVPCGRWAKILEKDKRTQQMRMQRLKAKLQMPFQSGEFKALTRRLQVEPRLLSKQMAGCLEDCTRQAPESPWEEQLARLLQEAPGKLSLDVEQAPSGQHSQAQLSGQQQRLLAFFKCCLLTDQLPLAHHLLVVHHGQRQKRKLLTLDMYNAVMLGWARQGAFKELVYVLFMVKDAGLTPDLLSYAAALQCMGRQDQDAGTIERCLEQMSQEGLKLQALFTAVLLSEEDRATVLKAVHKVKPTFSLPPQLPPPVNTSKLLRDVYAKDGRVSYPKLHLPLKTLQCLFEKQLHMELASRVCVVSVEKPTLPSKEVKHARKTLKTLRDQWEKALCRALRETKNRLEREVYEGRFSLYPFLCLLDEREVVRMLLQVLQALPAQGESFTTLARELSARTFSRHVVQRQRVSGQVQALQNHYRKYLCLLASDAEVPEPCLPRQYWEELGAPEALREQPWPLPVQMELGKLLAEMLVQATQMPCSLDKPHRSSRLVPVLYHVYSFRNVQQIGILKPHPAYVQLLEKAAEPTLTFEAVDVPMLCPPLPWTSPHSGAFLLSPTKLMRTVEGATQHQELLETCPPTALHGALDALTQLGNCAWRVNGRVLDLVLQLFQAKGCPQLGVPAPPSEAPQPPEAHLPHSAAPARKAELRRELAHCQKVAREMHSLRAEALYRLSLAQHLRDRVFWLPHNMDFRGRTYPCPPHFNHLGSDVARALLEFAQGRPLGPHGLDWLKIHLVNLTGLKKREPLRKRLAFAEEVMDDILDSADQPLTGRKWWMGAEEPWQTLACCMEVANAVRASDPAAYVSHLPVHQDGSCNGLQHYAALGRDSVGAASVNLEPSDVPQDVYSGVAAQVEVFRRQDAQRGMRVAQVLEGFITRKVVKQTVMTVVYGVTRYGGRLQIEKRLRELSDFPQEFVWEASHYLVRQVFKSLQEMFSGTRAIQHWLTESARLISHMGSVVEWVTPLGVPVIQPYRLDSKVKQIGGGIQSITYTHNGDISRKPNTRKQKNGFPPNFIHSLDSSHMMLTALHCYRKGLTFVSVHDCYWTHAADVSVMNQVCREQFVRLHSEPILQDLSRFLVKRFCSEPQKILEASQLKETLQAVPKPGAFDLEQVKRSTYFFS
# Assay: DdRp assay: incorporation of nucleotides by human mitochondrial RNA polymerase (HMRP)
# Conditions: single turnover, 100 μM NTP, 30° C., 1 minute; product band on gel
SMILES,"incorporation by HMRP, template for GTP analogs (FIG. 11)","incorporation by HMRP, template for UTP analogs (FIG. 10)"
Nc1ncnc2c1ncn2[C@@H]1O[C@H](COP(=O)(O)OP(=O)(O)OP(=O)(O)O)[C@@H](O)[C@H]1O [ATP],poor substrate for incorporation,
C[C@@]1(F)[C@H](O)[C@@H](COP(=O)(O)OP(=O)(O)OP(=O)(O)O)O[C@H]1n1ccc(=O)[nH]c1=O [2′-Me-2′-F-UTP],,not efficient substrates for incorporation by HMRP
